Experimental data taken from patent US9943536B2, “Reactivation of HIV-1 gene expression to treat persistent HIV infection” (UNIVERSITÉ LIBRE DE BRUXELLES, priority 2011, dated 2018).
“And” between values parts separate entries of the source, which are not always exact repeats. Identical values can stand only once.

What was measured:
Type in all cases: cell-based
[1] = test system: HIV-1 in HLA DR− CD25− CD69− CD4+ T cells from HIV-1-infected cART-treated patients; test: HIV-1 recovery in resting memory (HLA DR− CD25− CD69−) CD4+ T cells from cART-treated patients; settings: for concentration of viral RNA in culture supernatants: HLA DR− CD25− CD69− CD4+ T cells, six days after treatment
Procedure: Further to Table 3: Cultures of patient cells were mock-treated or treated with indicated compounds. Six days after treatment, the concentration of viral RNA in culture supernatants was determined (in copies/ml; l means below the threshold and ‘/’ indicates an untested condition). Total HIV-1 DNA is expressed as HIV-1 DNA copies/10^6 cells or as log HIV-1 DNA copies/10^6 cells.
FIG. 3. […] Cultures of resting memory CD4^+ T cells were mock-treated or treated as indicated. Six days after treatment, the concentration of viral RNA in culture supernatants was measured (in copies/ml). […] The reactivated patient cultures were classified in relevant categories where HIV-1 recovery after the combined treatment presented a higher viral production than after the individual treatment. […] The reactivated patient cultures were subdivided in two relevant categories: (b1) cultures in which HIV-1 recovery after the combined treatment was higher than after the individual treatments, (b2) and cultures in which a synergistic reactivation of viral RNA production was observed after the combined treatments.
(§1) Table 4. […] Cultures of resting memory CD4^+ T cells were mock-treated or treated with BIX-01294. Six days after treatment, the concentration of viral RNA in culture supernatants was determined in copies/ml (l indicates below the threshold).
as §1, with “FIG.” for “Table”, “BIX-01294 alone, with SAHA alone or with the combinationSAHA+BIX-01294.” for “BIX-01294.”, “(I” for “(l”
Cultures of 2.5×10^5 HLA DR^− CD 25 CD69^− CD4^+ T cells were mock-treated or treated with BIX-01294. Six days after treatment, the concentration of viral RNA in culture supernatants was determined (Table 4).

[2] = test system: HIV-1 in HLA DR− CD4+ T cells from HIV-1-infected cART-treated patients; test: HIV-1 recovery in limiting-dilution cultures of HLA DR− CD4+ T cells from cART-treated patients; settings: for concentration of viral RNA in culture supernatants: limiting dilution, one line per patient
Procedure: (§2) (a) Cultures of CD8^+-depleted PBMCs were mock-treated or treated with chaetocin (90 nmol/l). Six days after treatment, the concentration of viral RNA in culture supernatants was determined. Total HIV-1 DNA is expressed as HIV-1 DNA copies/10^6 cells or as log HIV-1 DNA copies/10^6 cells (‘/’ indicates not-tested condition). (b) Limiting-dilution cultures of HLA DR^− CD4^+ T cells were mock-treated or treated with chaetocin (45 or 90 nmol/l). The concentration of viral RNA in culture supernatants was determined. The last positive dilution culture indicates the presence of at least one cell carrying replication-competent and chaetocin-responsive virus.
(§3) Cultures comprising 6.10^6 CD8^+-depleted PBMCs were mock-treated or treated with chaetocin. Six days after treatment, the concentration of viral RNA in culture supernatants was determined by the Amplicor method (Roche Diagnostics). The results are depicted in Table 1 and 2A. The percentage of reactivation was calculated on all patients reactivated. Nine out of the eighteen tested PBMC cultures reactivated HIV-1 expression in response to chaetocin treatment, while none of them did when mock-treated. Subsequently, limiting-dilution cultures of HLA DR^− CD4^+ T cells were performed and these cultures were mock-treated or treated with chaetocin. The last positive dilution culture indicates the presence of at least one cell carrying replication-competent HIV-1 virus. The concentration of viral RNA in culture supernatants was determined by the Amplicor method (Roche Diagnostics). Values are expressed in HIV-1 RNA copies/ml.

[3] = test system: HIV-1 in CD8+-depleted PBMCs from HIV-1-infected cART-treated patients; test: HIV-1 recovery in ex-vivo cultures of CD8+-depleted PBMCs from cART-treated patients; settings: for concentration of viral RNA in culture supernatants: six days after treatment
Procedure: Table 1. […] Cultures of CD8^+-depleted PBMCs were mock-treated or treated with chaetocin (30, 60 or 90 nmol/l) or with the positive control. Six days after treatment, the concentration of viral RNA in culture supernatants was determined (in copies/ml; ‘l’ indicates below the threshold).
as §2, §3

[4] = one line per patient culture H19-H34 (Table 3), l = below the threshold

O=C(CCCCCCC(=O)Nc1ccccc1)NO [SAHA, suberoylanilide hydroxamic acid]
concentration of viral RNA in culture supernatants [1, 4]: 624 copies/ml and 520 copies/ml and 252 copies/ml and 2248 copies/ml and 908 copies/ml and 952 copies/ml and 336 copies/ml and 540 copies/ml and 1480 copies/ml and 420 copies/ml and 416 copies/ml and 412 copies/ml

COc1cc2nc(N3CCCN(C)CC3)nc(NC3CCN(Cc4ccccc4)CC3)c2cc1OC [BIX-01294]
% of reactivation ([1]; 10 patients (Table 4)): 80%
concentration of viral RNA in culture supernatants ([1]; one line per patient culture (Table 4), I = below the threshold): 412 copies/ml and 1 780 copies/ml and 1 360 copies/ml and 665 copies/ml and 1624 copies/ml and 1385 copies/ml and 250 copies/ml and 4292 copies/ml
concentration of viral RNA in culture supernatants [1, 4]: 665 copies/ml and 1624 copies/ml and 1385 copies/ml and 250 copies/ml and 4292 copies/ml and 412 copies/ml and 1780 copies/ml and 1360 copies/ml
reactivated HIV-1 expression, share of resting CD4+ T-cell cultures ([1]; cultures from HIV-1+ cART-treated patients (Table 4)): 80%
Reactivated patients ([1]; of 10 patients (Table 4)): 8

CC(=O)O[C@@]12C[C@@H](C)[C@@]3(O)[C@@H](C=C(CO)C[C@]4(O)C(=O)C(C)=C[C@@H]34)[C@@H]1C2(C)C [prostratin, 12-deoxyphorbol 13-acetate]
concentration of viral RNA in culture supernatants [1, 4]: 612 copies/ml and 1380 copies/ml and 1064 copies/ml and 2508 copies/ml and 2540 copies/ml and 3532 copies/ml and 704 copies/ml and 420 copies/ml

CN1C(=O)[C@@]23C[C@]4([C@]56C[C@@]78SS[C@@](CO)(C(=O)N7[C@H]5Nc5ccccc56)N(C)C8=O)c5ccccc5N[C@@H]4N2C(=O)[C@]1(CO)SS3 [chaetocin]
concentration of viral RNA in culture supernatants ([2]; chaetocin 45 nM, 1.5 × 10^6 cells): 288 copies/ml and 831 copies/ml
concentration of viral RNA in culture supernatants ([2]; chaetocin 45 nM, 5 × 10^5 cells): 179 copies/ml and 245 copies/ml and 89 copies/ml and 97 copies/ml and 769 copies/ml
concentration of viral RNA in culture supernatants ([2]; chaetocin 45 nM, 10^5 cells): 83 copies/ml and 238 copies/ml
concentration of viral RNA in culture supernatants ([2]; chaetocin 45 nM, 10^6 cells): 284 copies/ml and 94 copies/ml and 292 copies/ml and 702 copies/ml
concentration of viral RNA in culture supernatants ([2]; chaetocin 90 nM, 1.5 × 10^6 cells): 377 copies/ml and 1050 copies/ml
concentration of viral RNA in culture supernatants ([2]; chaetocin 90 nM, 5 × 10^4 cells): 76 copies/ml
concentration of viral RNA in culture supernatants ([2]; chaetocin 90 nM, 5 × 10^5 cells): 147 copies/ml and 118 copies/ml and 68 copies/ml and 52 copies/ml and 1043 copies/ml
concentration of viral RNA in culture supernatants ([2]; chaetocin 90 nM, 10^5 cells): 51 copies/ml and 50 copies/ml and 47 copies/ml and 359 copies/ml
concentration of viral RNA in culture supernatants ([2]; chaetocin 90 nM, 10^6 cells): 178 copies/ml and 131 copies/ml and 791 copies/ml
HIV-1 recovery, share of resting CD4+ T-cell cultures ([2]; cultures from HIV-1+ cART-treated patients (Table 2b)): 86%
% of reactivation ([3]; 18 patients H1-H18, chaetocin 90 nmol/l or positive control): 50%
concentration of viral RNA in culture supernatants ([3]; CD8+-depleted PBMCs, one line per patient culture H1-H18 (Table 3), l = below the threshold): 1825 copies/ml and 354 copies/ml and 2057 copies/ml and 2371 copies/ml and 1566 copies/ml and 797 copies/ml and 477 copies/ml and 2388 copies/ml and 467 copies/ml
Reactivated patients ([3]; chaetocin 30 nM, of 6 patients H1-H6): 1
concentration of viral RNA in culture supernatants ([3]; chaetocin 30 nM, one line per patient culture, I = below the threshold): 1139 copies/ml
Reactivated patients ([3]; chaetocin 60 nM, of 6 patients H1-H6): 3
concentration of viral RNA in culture supernatants ([3]; chaetocin 60 nM, one line per patient culture, I = below the threshold): 222 copies/ml and 452 copies/ml and 1924 copies/ml
Reactivated patients ([3]; chaetocin 90 nM, of 6 patients H1-H6): 4
concentration of viral RNA in culture supernatants ([3]; chaetocin 90 nM, one line per patient culture, I = below the threshold): 2371 copies/ml and 1825 copies/ml and 354 copies/ml and 2057 copies/ml
concentration of viral RNA in culture supernatants ([3]; chaetocin 90 nmol/l, one line per patient culture H1-H18, I = below the threshold): 2371 copies/ml and 1566 copies/ml and 797 copies/ml and 477 copies/ml and 2388 copies/ml and 467 copies/ml and 1825 copies/ml and 354 copies/ml and 2057 copies/ml
HIV-1 recovery, share of CD8+-depleted PBMCs cultures ([3]; cultures from HIV-1+ cART-treated patients (Table 2a)): 50%
Reactivated patients ([3]; of 18 patients H1-H18, chaetocin 90 nmol/l or positive control): 9
concentration of viral RNA in culture supernatants [1, 4]: 832 copies/ml and 180 copies/ml and 2780 copies/ml and 1244 copies/ml and 1616 copies/ml and 2000 copies/ml and 680 copies/ml and 4944 copies/ml and 300 copies/ml and 328 copies/ml and 2456 copies/ml and 1000 copies/ml
